One compound from article PMC11375437, “Selective labelling of GBA2 in cells with fluorescent β-D-arabinofuranosyl cyclitol aziridines” (Chemical Science, 2024) can be followed below.

Molecules are shown by their SMILES.

The target in this assay is T1, GBA2 (Homo sapiens, UniProt Q9HCG7).
T1 sequence (Q9HCG7 1-927): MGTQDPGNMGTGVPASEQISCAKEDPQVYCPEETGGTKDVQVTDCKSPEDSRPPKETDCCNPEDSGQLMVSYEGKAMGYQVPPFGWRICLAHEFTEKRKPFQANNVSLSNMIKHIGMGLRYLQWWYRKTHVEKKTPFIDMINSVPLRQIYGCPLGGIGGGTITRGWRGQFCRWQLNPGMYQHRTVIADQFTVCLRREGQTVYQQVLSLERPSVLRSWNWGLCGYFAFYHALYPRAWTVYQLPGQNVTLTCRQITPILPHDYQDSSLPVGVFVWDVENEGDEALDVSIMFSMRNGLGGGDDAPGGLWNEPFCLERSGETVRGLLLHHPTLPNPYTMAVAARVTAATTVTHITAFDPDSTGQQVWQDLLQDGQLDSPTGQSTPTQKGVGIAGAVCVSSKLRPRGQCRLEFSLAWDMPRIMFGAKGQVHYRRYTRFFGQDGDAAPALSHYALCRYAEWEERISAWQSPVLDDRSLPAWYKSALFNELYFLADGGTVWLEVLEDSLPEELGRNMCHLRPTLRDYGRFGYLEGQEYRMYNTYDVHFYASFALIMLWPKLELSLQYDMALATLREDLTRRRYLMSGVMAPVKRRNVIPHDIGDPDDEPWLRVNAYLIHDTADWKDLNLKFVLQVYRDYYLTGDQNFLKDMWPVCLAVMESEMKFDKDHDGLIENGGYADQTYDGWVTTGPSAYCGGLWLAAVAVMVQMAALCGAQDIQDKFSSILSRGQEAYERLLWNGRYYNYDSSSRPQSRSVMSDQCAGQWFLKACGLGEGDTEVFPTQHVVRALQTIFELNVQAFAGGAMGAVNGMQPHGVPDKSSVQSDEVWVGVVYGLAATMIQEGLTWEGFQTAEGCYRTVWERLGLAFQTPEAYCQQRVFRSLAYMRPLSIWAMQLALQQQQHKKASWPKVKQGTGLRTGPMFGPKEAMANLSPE
The experiment in a line: Labelling kinetics of ABP 4 on GBA2 by SDS-PAGE. The format is biochemical. More on the design: expressed in transfected cells; host or cells: HEK293T GBA1/GBA2 KO (CRISPR/Cas9), GBA2 overexpressed. The settings on record: HEK293T GBA1/2 KO, GBA2 OE lysate; pH 5.8; 37 °C. On the procedure:
To this end, lysates of HEK293T cells containing all β-glucosidases (endogenous GBA1 with overexpressed GBA2 and GBA3) were treated with ABPs 3, 4, 5 or 7, followed by protein separation by SDS-PAGE and fluorescence scanning of the wet gel slabs. […] In contrast, the β-D-Araf aziridine ABPs 3 and 4 selectively labelled GBA2 at a concentration of 100 nM, while Cy5 tagged ABP 5 did so at 500 nM. The GBA2 selectivity of β-D-Araf cyclitol aziridines 3, 4 and 5 was confirmed in a mixture of a lysate of overexpressed GBA2 cells spiked with 3 ng rhGBA1 (Fig. 2C and ESI Fig. S3 ^†). […] Therefore, only a combined inactivation rate constant (kinact) and binding constant (KI) ratio (kinact/KI) could be measured. […] Importantly, no labelling of GBA1 or GBA3 was detected under varying pH and time conditions (ESI Fig. S4-2 ^†).
Figure S4-1. […] A) Percentage of GBA2 labelling by ABP 4 (left graphs), data was quantified from three independent sets of fluorescent gels under the depicted conditions. […]
of inhibitors diluted in McIlvaine buffer (150 mM, pH 5.2) at 37 °C for 30 min or 3 h. […] After stopping the enzyme reaction with 200 μL 1 M NaOH-glycine (pH 10.3), 4-methylumbelliferone fluorescence was measured with a fluorimeter LS55 (Perkin Elmer, Waltham, MA, USA) with λEX 366 nm and λEM 445 nm. […]

For orientation: kinact/KI means the second-order rate constant of inactivation. Turning to `COc1ccc(C2=[N+]3C(=C(CCCCc4cn(CCCCCCCCN5[C@@H]6[C@H](CO)[C@@H](O)[C@H](O)[C@@H]65)nn4)c4ccc(-c5ccc(OC)cc5)n4[B-]3(F)F)C=C2)cc1` (stereo partly shown) [ABP 4], the kinact/KI was 19200 M⁻¹ s⁻¹.
